Reference: the NIST ThermoML archive (doi:10.1021/acs.jced.9b00311)

Assay: xn = mol fraction of the nth substance listed
Details: Liquid; for speed of sound: Frequency=3 MHz, Pulse-echo method; for mass density: Vibrating tube method

CCCCCCCCCCCC [dodecane] + O=C=O
Details	mass density, 303.15 K [kg/m3]	mass density, 313.15 K [kg/m3]	speed of sound, 303.15 K [m/s]	speed of sound, 313.15 K [m/s]
10000 kPa, x2 = 0	748.5	741.6	1318.5	1281.7
10000 kPa, x2 = 0.2032	–	–	1245.6	1209.7
10000 kPa, x2 = 0.205	756.3	748.8	–	–
10000 kPa, x2 = 0.3989	–	–	1152.2	1114.6
10000 kPa, x2 = 0.4	767.4	758.7	–	–
10000 kPa, x2 = 0.6007	–	–	1011.6	969.6
10000 kPa, x2 = 0.6008	784.3	773.3	–	–
10000 kPa, x2 = 0.7497	802.5	786.6	–	–
10000 kPa, x2 = 0.7498	–	–	845.5	793.2
10000 kPa, x2 = 0.8528	–	–	680.5	630
10000 kPa, x2 = 0.853	815.6	790.9	–	–
10000 kPa, x2 = 0.9348	817.8	771.4	–	–
10000 kPa, x2 = 0.9771	801	721.2	–	–
10000 kPa, x2 = 0.9877	790.6	689.4	–	–
20000 kPa, x2 = 0	755.1	748.5	1372.4	1337.9
20000 kPa, x2 = 0.2032	–	–	1304.1	1269.6
20000 kPa, x2 = 0.205	763.6	756.5	–	–
20000 kPa, x2 = 0.3989	–	–	1214.9	1180.3
20000 kPa, x2 = 0.4	776.3	768.1	–	–
20000 kPa, x2 = 0.6007	–	–	1084.4	1046.4
20000 kPa, x2 = 0.6008	796.3	786.1	–	–
20000 kPa, x2 = 0.7497	820.5	806.5	–	–
20000 kPa, x2 = 0.7498	–	–	937	893.3
20000 kPa, x2 = 0.8528	–	–	800.1	751.2
20000 kPa, x2 = 0.853	844.1	824.1	–	–
20000 kPa, x2 = 0.9348	868.5	838.9	–	–
20000 kPa, x2 = 0.9771	883.1	842	–	–
20000 kPa, x2 = 0.9877	887.1	841.4	–	–
30000 kPa, x2 = 0	761.3	754.8	1421.4	1389.6
30000 kPa, x2 = 0.2032	–	–	1356.4	1322.9
30000 kPa, x2 = 0.205	770.5	763.6	–	–
30000 kPa, x2 = 0.3989	–	–	1272	1238.8
30000 kPa, x2 = 0.4	784.3	776.4	–	–
30000 kPa, x2 = 0.6007	–	–	1147.4	1112.9
30000 kPa, x2 = 0.6008	806.8	797.2	–	–
30000 kPa, x2 = 0.7497	835.2	822.5	–	–
30000 kPa, x2 = 0.7498	–	–	1010.4	971.4
30000 kPa, x2 = 0.8528	–	–	885.8	843.1
30000 kPa, x2 = 0.853	865.6	847.6	–	–
30000 kPa, x2 = 0.9348	902.4	877.6	–	–
30000 kPa, x2 = 0.9771	929.5	897.3	–	–
30000 kPa, x2 = 0.9877	937.7	902.7	–	–
40000 kPa, x2 = 0	766.9	760.8	1468.5	1436.8
40000 kPa, x2 = 0.2032	–	–	1404.4	1373.3
40000 kPa, x2 = 0.205	776.8	770.3	–	–
40000 kPa, x2 = 0.3989	–	–	1323	1291
40000 kPa, x2 = 0.4	791.6	784.2	–	–
40000 kPa, x2 = 0.6007	–	–	1204.4	1170.9
40000 kPa, x2 = 0.6008	816	807.2	–	–
40000 kPa, x2 = 0.7497	847.6	836.1	–	–
40000 kPa, x2 = 0.7498	–	–	1073.3	1037.1
40000 kPa, x2 = 0.8528	–	–	955.4	917.2
40000 kPa, x2 = 0.853	883.1	866.6	–	–
40000 kPa, x2 = 0.9348	928.1	906.5	–	–
40000 kPa, x2 = 0.9771	963.1	935.9	–	–
40000 kPa, x2 = 0.9877	973.9	944.5	–	–
50000 kPa, x2 = 0	772	766.3	1512.3	1481.5
50000 kPa, x2 = 0.2032	–	–	1449.9	1419.2
50000 kPa, x2 = 0.205	782.5	776.4	–	–
50000 kPa, x2 = 0.3989	–	–	1370.3	1339.9
50000 kPa, x2 = 0.4	798.2	791.2	–	–
50000 kPa, x2 = 0.6007	–	–	1256	1224.3
50000 kPa, x2 = 0.6008	824.4	816.1	–	–
50000 kPa, x2 = 0.7497	858.7	848	–	–
50000 kPa, x2 = 0.7498	–	–	1128.9	1095.2
50000 kPa, x2 = 0.8528	–	–	1015.3	979.7
50000 kPa, x2 = 0.853	898.1	882.5	–	–
50000 kPa, x2 = 0.9348	950.3	929.7	–	–
50000 kPa, x2 = 0.9771	990.1	965.6	–	–
50000 kPa, x2 = 0.9877	1002.9	976.7	–	–
60000 kPa, x2 = 0	776.8	771.5	1553.7	1524.2
60000 kPa, x2 = 0.2032	–	–	1492.5	1462.4
60000 kPa, x2 = 0.205	787.9	782.1	–	–
60000 kPa, x2 = 0.3989	–	–	1414.9	1385.2
60000 kPa, x2 = 0.4	804.4	797.6	–	–
60000 kPa, x2 = 0.6007	–	–	1303.2	1272.9
60000 kPa, x2 = 0.6008	832.1	824.2	–	–
60000 kPa, x2 = 0.7497	868.7	858.7	–	–
60000 kPa, x2 = 0.7498	–	–	1179.5	1147
60000 kPa, x2 = 0.8528	–	–	1068.3	1034.9
60000 kPa, x2 = 0.853	911.4	896.4	–	–
60000 kPa, x2 = 0.9348	967.4	949.4	–	–
60000 kPa, x2 = 0.9771	1012.8	990.3	–	–
60000 kPa, x2 = 0.9877	1027.1	1003.1	–	–
70000 kPa, x2 = 0	781.4	776.4	1593.3	1564.6
70000 kPa, x2 = 0.2032	–	–	1532.6	1503.9
70000 kPa, x2 = 0.205	793.2	787.4	–	–
70000 kPa, x2 = 0.3989	–	–	1456.7	1427.5
70000 kPa, x2 = 0.4	810.2	803.6	–	–
70000 kPa, x2 = 0.6007	–	–	1346.4	1317.9
70000 kPa, x2 = 0.6008	839.3	831.6	–	–
70000 kPa, x2 = 0.7497	878	868.2	–	–
70000 kPa, x2 = 0.7498	–	–	1225.4	1195.2
70000 kPa, x2 = 0.8528	–	–	1116.7	1084.8
70000 kPa, x2 = 0.853	923.3	908.7	–	–
70000 kPa, x2 = 0.9348	983.5	966.6	–	–
70000 kPa, x2 = 0.9771	1032.6	1011.6	–	–
70000 kPa, x2 = 0.9877	1048.1	1025.8	–	–
